Assay results published in patent publication US20220265646A1, “PIEZO AGONISTS FOR PREVENTING OR REVERTING ABNORMAL AMYLOID DEPOSITION” (ITÄ-SUOMEN YLIOPISTO, priority 2019, published 2022).

Experiments:
native Piezo1Rs = molecular target: T1, native Piezo1Rs (Homo sapiens, UniProt Q92508); experiment: Calcium imaging of Yoda1-evoked Ca2+ influx in hiPSC-derived microglia; assay type: cell-based; conditions: 50 μM GdCI in BS pre-incubation
T1 construct: endogenous in cells; host or cells: human iPSC-derived microglia
T1 sequence (Q92508 whole entry): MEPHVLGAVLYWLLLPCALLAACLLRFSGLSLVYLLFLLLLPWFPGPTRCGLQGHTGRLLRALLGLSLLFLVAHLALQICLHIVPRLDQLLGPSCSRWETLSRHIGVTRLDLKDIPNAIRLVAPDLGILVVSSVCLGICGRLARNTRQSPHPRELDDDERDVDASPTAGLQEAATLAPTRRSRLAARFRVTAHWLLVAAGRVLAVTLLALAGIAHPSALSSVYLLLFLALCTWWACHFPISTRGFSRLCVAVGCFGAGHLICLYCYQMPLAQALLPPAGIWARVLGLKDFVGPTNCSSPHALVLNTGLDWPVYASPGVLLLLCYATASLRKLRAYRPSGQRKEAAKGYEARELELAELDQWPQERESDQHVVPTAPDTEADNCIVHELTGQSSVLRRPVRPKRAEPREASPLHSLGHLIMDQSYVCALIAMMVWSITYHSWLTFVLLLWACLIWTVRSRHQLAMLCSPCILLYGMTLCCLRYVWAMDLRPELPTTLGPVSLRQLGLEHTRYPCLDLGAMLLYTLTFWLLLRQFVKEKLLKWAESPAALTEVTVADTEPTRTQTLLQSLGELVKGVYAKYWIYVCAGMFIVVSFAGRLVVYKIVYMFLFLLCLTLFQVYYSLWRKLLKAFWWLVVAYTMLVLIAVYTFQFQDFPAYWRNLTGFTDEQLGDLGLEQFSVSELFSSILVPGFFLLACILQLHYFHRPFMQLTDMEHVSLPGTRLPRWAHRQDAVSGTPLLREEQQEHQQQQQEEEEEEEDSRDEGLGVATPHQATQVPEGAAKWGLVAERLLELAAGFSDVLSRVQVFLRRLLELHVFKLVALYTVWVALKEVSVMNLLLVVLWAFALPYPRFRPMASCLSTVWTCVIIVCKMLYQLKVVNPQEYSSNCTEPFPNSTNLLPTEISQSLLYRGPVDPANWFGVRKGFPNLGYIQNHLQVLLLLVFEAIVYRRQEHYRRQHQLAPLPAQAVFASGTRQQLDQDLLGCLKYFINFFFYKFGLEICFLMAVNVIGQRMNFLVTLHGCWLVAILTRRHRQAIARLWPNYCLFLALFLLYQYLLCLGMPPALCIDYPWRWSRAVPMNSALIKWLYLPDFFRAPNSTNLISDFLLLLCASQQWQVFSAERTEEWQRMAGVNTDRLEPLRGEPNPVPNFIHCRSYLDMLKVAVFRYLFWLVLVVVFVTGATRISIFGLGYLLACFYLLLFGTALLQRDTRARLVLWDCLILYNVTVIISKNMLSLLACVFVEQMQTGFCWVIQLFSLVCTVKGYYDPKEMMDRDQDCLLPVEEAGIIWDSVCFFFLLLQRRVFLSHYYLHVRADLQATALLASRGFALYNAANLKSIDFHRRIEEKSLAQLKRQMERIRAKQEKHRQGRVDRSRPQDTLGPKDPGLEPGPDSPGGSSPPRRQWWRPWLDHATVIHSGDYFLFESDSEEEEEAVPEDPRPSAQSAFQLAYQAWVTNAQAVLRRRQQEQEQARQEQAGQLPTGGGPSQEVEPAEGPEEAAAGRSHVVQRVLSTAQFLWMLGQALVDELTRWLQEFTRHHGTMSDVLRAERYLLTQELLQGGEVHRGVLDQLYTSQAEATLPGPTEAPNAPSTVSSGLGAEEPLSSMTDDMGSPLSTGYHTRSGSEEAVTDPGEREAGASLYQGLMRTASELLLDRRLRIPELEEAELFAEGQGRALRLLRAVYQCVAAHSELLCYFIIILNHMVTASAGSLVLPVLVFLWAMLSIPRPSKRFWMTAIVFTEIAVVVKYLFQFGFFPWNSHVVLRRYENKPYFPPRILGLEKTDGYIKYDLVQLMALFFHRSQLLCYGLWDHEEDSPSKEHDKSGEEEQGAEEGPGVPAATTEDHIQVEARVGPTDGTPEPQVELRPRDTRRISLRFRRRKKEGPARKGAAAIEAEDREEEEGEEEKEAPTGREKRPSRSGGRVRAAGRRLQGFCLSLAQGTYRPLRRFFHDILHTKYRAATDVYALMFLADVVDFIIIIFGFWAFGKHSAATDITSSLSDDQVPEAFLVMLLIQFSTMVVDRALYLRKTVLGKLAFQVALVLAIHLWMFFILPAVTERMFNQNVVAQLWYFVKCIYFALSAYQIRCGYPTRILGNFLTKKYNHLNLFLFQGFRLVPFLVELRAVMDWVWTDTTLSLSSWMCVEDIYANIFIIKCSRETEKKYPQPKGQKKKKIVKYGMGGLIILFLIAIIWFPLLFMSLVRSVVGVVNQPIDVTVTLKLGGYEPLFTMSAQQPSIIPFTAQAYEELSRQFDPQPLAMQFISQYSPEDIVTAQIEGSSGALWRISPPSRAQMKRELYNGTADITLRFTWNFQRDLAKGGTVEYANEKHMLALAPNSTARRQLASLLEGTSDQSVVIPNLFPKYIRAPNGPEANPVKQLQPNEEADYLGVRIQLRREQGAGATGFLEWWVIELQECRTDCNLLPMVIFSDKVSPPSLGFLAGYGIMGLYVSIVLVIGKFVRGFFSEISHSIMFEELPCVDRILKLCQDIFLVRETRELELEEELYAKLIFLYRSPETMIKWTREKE
Method: (§1) To study the calcium influx evoked by native Piezo1 Rs expressed in microglia cells the present inventors used short Yoda1 applications (2 s, 50 μM if not otherwise specified). For this purpose, human IPSO derived microglia cells and SV-40 (immortalized human microglia) cells were seeded on 7 mm cover slips 1 day prior to the imaging experiment. Cells were loaded with the calcium-sensitive fluorescent dye Fluo-4AM (5 μM) for 30 min at 37° C. Followed by wash-incubation for 15 min in Ab 20 μM, 50 μM GdCI and basic solution (BS) as a control at 37° C. The basic solution containing the following (BS, in mM): 2.5 KCl, 152 NaCl, 10 glucose, 2 CaCl2, and 10 HEPES at pH 7.4. Fluorescence was visualized using monochromatic light source (TILL Photonics GmbH) using Ex/Im 494/[…] and a CCD camera (SensiCam). Chemicals were applied using a fast perfusion system (RSC-200, BioLogic Science). To quantify the difference in the amplitude of calcium transients, the ratio values were normalized by subtracting a baseline and further divided by the amplitude of the calcium transient to the 2 sec application of the ionomycin. Data were pre-analyzed offline using the FEI offline analysis (TILL Photonics), and further analysis was automatized using MatLab. Quantitative data were expressed as means±SEM unless otherwise stated. Number of experiments is indicated by n. Significance assessed with the ANOVA test or Mann-Whitney t test for non-parametric data. Statistically significant differences were set at*p<0.05 and **p<0.01.
Differentiation of microglia. Differentiation of microglia was carried out as previously described with minor modifications (Abud et al., 2017). Shortly, on DO, iPSCs were dissociated to single cells with 0.5 mM EDTA or Accutase and were replated at a density of 6-,000-16,000 cells/cm2 on Matrigel in E8, 0.5% penicillin/streptomycin (P/S, 50 IU/50 […]), 5 ng/ml BMP4, 25 ng/ml activin a (both from Peprotech or Miltenyi Biotec), 1 μM CHIR 99021 (Axon or Stem Cell Technologies) and 10 μM Y-27632 to induce mesodermal differentiation. […]

Piezo1Rs = molecular target: T2, Piezo1Rs (Homo sapiens, UniProt Q92508); experiment: Calcium imaging of Yoda1-evoked Ca2+ transients in SV-40 immortalized human microglia cell line; assay type: cell-based; conditions: SV-40 cells, n=13, p=0.00009
T2 construct: SV-40 immortalized human microglia cell line which endogenously express Piezo-1 and Piezo2Rs was used; endogenous in cells; host or cells: SV-40 immortalized human microglia cell line
T2 sequence (Q92508 whole entry): as above
Method: as §1, with “Chemicals were applied using a fast perfusion system (RSC-200, BioLogic Science).” left out, “Number of experiments is indicated by n.” left out, “Statistically significant differences were set at*p<0.05 and **p<0.01.” left out

Question: With [Cl][Gd]([Cl])[Cl] [GdCI, Gadolinium chloride] as the molecule, how does the “Yoda1-activated Ca2+ transients after pre-incubation with GdCI” value (native Piezo1Rs; 50 μM Yoda1 2 s, n=5, p=0.0073) read?
Answer: 0.10±0.1

Question: What about the “inhibition of Yoda1-activated Ca2+ transients” value (native Piezo1Rs; hiPSC microglia) of the same molecule?
Answer: 90%

Question: What about the “Yoda1 activated Ca2+ transients after pre-incubation of GdCI” value (Piezo1Rs) of the same molecule?
Answer: 0.17±0.04
